Reference: patent publication US7998965B2, “Glutamate aggrecanase inhibitors” (Wyeth LLC, priority 2005, dated 2011)
Like-named read-outs stand apart in the source and are kept apart here.

What was measured:
[1] = biological target: T1, recombinant human catalytic domain of MMP-13 (Homo sapiens, UniProt P45452); assay: In vitro fluorescence assay of MMP-13 activity; type: biochemical
T1 construct: catalytic domain of MMP-13 (165 amino acids, residues 104-268, 19 kDa)

[2] = biological target: T2, purified recombinant human Aggrecanase-2 (Ag2t-Phe628-Strep) (Homo sapiens, UniProt Q9UNA0); assay: In vitro fluorescence screen for Aggrecanase-2 inhibitors; type: biochemical; details: read-out: Agg 2 IC50
T2 construct: the form used is denoted as Ag2t-Phe628-Strep (MW=41,737)
T2 sequence (Q9UNA0 262-628): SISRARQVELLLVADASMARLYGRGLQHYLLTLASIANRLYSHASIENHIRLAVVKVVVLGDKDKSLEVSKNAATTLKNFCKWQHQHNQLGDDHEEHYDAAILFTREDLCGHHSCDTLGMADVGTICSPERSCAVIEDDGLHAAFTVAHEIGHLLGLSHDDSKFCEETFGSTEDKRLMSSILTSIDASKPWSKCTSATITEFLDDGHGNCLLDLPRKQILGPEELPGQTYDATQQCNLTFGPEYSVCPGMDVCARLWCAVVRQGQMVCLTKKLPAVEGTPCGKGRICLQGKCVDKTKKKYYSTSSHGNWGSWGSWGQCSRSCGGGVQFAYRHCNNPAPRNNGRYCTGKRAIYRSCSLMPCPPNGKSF

[3] = biological target: T3, purified recombinant human Aggrecanase-1 (rAgg1) (Homo sapiens, UniProt O75173); assay: In vitro fluorescence screen for Aggrecanase-1 inhibitors; type: biochemical; details: for IC50: read-out: Agg1 IC50
T3 sequence (O75173 213-837): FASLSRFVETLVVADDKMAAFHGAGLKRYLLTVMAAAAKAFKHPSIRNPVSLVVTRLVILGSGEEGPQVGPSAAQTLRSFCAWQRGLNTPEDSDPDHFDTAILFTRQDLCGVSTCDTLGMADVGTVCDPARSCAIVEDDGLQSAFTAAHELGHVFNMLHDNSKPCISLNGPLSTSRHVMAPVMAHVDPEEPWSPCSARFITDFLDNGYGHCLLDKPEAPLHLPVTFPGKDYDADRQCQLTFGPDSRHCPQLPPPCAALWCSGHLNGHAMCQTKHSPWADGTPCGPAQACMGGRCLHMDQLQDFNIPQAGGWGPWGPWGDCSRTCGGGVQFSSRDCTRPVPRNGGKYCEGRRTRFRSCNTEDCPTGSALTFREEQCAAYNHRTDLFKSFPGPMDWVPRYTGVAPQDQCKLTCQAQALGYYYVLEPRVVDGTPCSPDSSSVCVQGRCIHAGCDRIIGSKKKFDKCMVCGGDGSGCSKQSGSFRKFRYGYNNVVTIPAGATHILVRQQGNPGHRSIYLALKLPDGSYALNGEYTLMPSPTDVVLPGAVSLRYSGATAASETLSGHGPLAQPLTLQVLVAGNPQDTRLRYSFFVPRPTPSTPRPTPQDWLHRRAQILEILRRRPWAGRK

MMP-1 = biological target: T4, MMP-1 (Homo sapiens, UniProt P03956); assay: MMP-1 of Table 1; type: biochemical; details: for MMP-1: unit not given; for IC50: unit inferred
T4 sequence (P03956 100-469): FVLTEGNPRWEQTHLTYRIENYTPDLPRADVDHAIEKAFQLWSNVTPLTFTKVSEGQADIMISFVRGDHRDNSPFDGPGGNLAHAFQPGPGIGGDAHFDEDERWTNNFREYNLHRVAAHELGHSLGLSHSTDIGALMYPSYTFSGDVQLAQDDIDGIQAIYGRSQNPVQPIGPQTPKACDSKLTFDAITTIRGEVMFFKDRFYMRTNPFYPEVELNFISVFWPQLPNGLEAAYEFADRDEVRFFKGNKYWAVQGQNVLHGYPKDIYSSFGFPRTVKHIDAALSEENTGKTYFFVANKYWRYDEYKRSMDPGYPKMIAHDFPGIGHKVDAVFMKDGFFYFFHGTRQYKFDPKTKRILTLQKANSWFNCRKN

recombinant human MMP-2 = biological target: T5, recombinant human MMP-2 (Homo sapiens, UniProt P08253); assay: In vitro fluorescence assay of MMP-2 activity
T5 sequence (P08253 110-660): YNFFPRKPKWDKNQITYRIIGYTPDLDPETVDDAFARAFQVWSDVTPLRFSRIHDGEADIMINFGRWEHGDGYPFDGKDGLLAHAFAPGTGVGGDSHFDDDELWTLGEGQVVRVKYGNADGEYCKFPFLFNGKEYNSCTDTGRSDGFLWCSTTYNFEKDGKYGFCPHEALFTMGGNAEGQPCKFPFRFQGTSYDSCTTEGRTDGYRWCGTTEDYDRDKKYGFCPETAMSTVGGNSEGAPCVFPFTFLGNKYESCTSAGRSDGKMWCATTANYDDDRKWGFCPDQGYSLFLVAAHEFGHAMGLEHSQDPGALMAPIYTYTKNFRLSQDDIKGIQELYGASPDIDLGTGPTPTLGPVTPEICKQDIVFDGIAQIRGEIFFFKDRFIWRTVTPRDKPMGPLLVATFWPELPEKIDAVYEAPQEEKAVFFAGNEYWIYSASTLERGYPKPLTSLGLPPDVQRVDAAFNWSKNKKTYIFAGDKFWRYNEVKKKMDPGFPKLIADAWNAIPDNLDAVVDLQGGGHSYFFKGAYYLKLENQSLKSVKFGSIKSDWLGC
Procedure: A continuous assay was used in which the substrate is a synthetic peptide containing a fluorescent group (7-methoxycoumarin; Mca), which is quenched by energy transfer to a 2,4-dinitrophenyl group. […] The source of enzyme in the assay was the recombinant human MMP-2 (66 kDa; Oncogene Research Products (catalog number PF023 from Calbiochem)). The substrate used was the peptide Mca-PQGL-(3-[2,4-dinitrophenyl]-L-2,3-diaminopropionyl)-AR-OH. The assay buffer consisted of 50 mM Hepes (pH 7.4), 100 mM NaCl, 5 mM CaCl2, and 0.005% Brij-35. […] The plates were then incubated at 30° C. for 15 minutes. The enzymatic reactions were initiated by adding the substrate to a final concentration of 20 μM, and mixing 10 times with a pipette. The final DMSO concentration in the assay was 6.0%.
Plots of the inhibitor concentration vs. the percent inhibition were fit to the following equation: y=(a−d)/[^1+(x/c)^b]+d, a general sigmoidal curve with Hill slope, a to d. x is the inhibitor concentration under test. y is the percent inhibition. a is the limiting response as x approaches zero. As x increases without bound, y tends toward its limit d. c is the inflection point (IC50) for the curve. That is, y is halfway between the lower and upper asymptotes when x=c. b is the slope factor or Hill coefficient.

[4] = biological target: T6, recombinant human catalytic domain of MMP-14 (Homo sapiens, UniProt P50281); assay: In vitro fluorescence assay of MMP-14 activity; type: biochemical; details: Table 1; for MMP-14: unit not given; for IC50: unit inferred
T6 construct: 177 amino acids corresponding to Tyr89-Gly265 of mature human enzyme; purchased Chemicon International, Inc. CC1041

[5] = test system: bovine articular cartilage treated with Interleukin 1 alpha (IL-1α); assay: Bovine articular cartilage explant cultures: inhibition of degradation of proteoglycan; type: cell-based; details: inhibitory effect expressed as percentage, concentration not printed
From the text: This in vitro procedure was used to evaluate the effect and relative potencies of small molecule compounds to inhibit the degradation of proteoglycan in articular cartilage treated with Interleukin 1 alpha (IL-1α). Treatment of articular cartilage with IL 1α induces expression of a cascade of enzymes that initiates cartilage matrix degradation. This assay was utilized to select small molecule compounds that inhibit the enzyme activity and protects cartilage matrix degradation.
Articular cartilage: bovine metacarpal joints were disinfected with 10% Wescodyne followed by 70% ethanol. 6 mm articular cartilage discs were prepared and rinsed once in PBS and medium, respectively. The discs were cultured in a stirring flask with serum-free medium for 5 days for equilibrium with one medium change. Small molecule compounds: stock solutions of test small molecule compounds (usually at 5 mg/ml) were prepared in DMSO. Working solutions were diluted with DMSO and generally ranged from 0.1 μg/ml to 10 ug/ml. The DMSO stocks were stored at […]. Articular cartilage explant culture medium: DMEM, 2 mM glutamax, 100 U/ml of antibiotic and antimycotic, 50 μg/ml ascorbate and 10 mM Hepes (pH-7.0). Proteoglycan content-Dimethyl methylene blue (DMMB) solution: […] DMMB, 10 ml 100% ethanol, 29.5 ml of 1M NaOH, 3.5 ml of 98% formic acid and water to 1 L. Chondroitin sulphate sodium salt: 1.56-200 ug/ml serial dilutions.
For the explant culture, cartilage discs were cultured in serum-free medium for 48 h or more. Discs were weighed and transferred to a 96-well plate, 1 disc per-well. 0.2 ml of medium containing 5 ng/ml of IL-1 and different concentrations of compounds were added to each well, with 3 wells allocated for each treatment. The medium was collected at days 1, 2, & 3 and replaced accordingly.
For the DMMB assay, conditioned medium (CM) samples were diluted with medium. 10 ul of each standard or diluted sample was added in duplicate into a 96-well-plate and 200 μl of DMMB solution was added into each well. Absorbance at 520 nm was measured for each well. Proteoglycan contents in CM were calculated daily.
The proteoglycan contents are expressed as ug per mg of cartilage. The inhibitory effect of the compounds is expressed as percentage. (See, Tortorella, M. D. et al., Science 1999, 284, 1664-1666).

[6] = Table 1, first of two columns headed bovine
[7] = Table 1, second of two columns headed bovine
[8] = Table 2, nM printed in one cell only

IC50 ([1]; Table 1, unit inferred)	IC50 ([2]; Table 1)	IC50 ([3]; Table 1)	IC50 (recombinant human MMP-2)	IC50 [4]	IC50 [1, 8]	IC50 ([2]; Table 2)	IC50 ([3]; Table 2)	Structure (SMILES)	also measured
~50000 nM	3000 nM	98 nM		> 50000 nM				O=C(O)CC[C@H](NC(=O)c1ccc(-c2ccccc2)cc1)C(=O)NCc1cccc(-c2ccccn2)c1 [Example 10Q, N^2-(biphenyl-4-ylcarbonyl)-N^1-(3-pyridin-2-ylbenzyl)-L-α-glutamine]	MMP-1 (MMP-1): no inh
					~100000 nM	217 nM	< 30 nM	COc1cccc(-c2ccc(C(=O)N[C@@H](CCC(=O)O)C(=O)NC(C)(C)Cc3ccccc3)cc2)c1 [Example 17I, N-(1,1-dimethyl-2-phenylethyl)-N^2-[(3′-methoxybiphenyl-4-yl)carbonyl]-L-α-glutamine]	
					11200 nM	42 nM	40 nM	COc1cc(CNC(=O)C(CCC(=O)O)NC(=O)c2ccc(-c3ccc4c(c3)OCO4)cc2)cc(OC)c1OC (stereo not shown) [Example 17N, 4-(4-Benzo[1,3]dioxol-5-yl-benzoylamino)-4-(3,4,5-trimethoxy-benzylcarbamoyl)-butyric acid]	
					6000 nM	142 nM	73 nM	COc1cc(CNC(=O)[C@H](CCC(=O)O)NC(=O)c2ccc(-c3ccc(C)c(F)c3)cc2)cc(OC)c1OC [Example 17R, N^2-[(3′-fluoro-4′-methylbiphenyl-4-yl)carbonyl]-N-(3,4,5-trimethoxybenzyl)-L-α-glutamine]	
29 nM	25 nM	< 10 nM		110 nM				COc1cccc(CCNC(=O)[C@H](CCC(=O)NO)NC(=O)c2ccc(-c3ccccc3)cc2)c1 [Example 33C, N^2-(1,1′-biphenyl-4-ylcarbonyl)-N^5-hydroxy-N^1-[2-(3-methoxyphenyl)ethyl]-L-α-glutamamide]	IC50 (MMP-1): 1500 nM

More lines, now with the values behind:

Structure (SMILES)	IC50 ([1]; Table 1, unit inferred)	IC50 ([2]; Table 1)	IC50 ([3]; Table 1)	IC50 (recombinant human MMP-2)	IC50 [4]	IC50 [1, 8]	IC50 ([2]; Table 2)	IC50 ([3]; Table 2)	also measured
CC(C)(Cc1ccc(F)cc1)NC(=O)C(CCC(=O)O)NC(=O)c1ccc(-c2ccccc2)cc1 (racemic) [Example 8GGGG, N^2-(biphenyl-4-ylcarbonyl)-N^1-[2-(4-fluorophenyl)-1,1-dimethylethyl]-α-glutamine]	> 50000 nM	160 nM	30 nM	18600 nM					MMP-1 (MMP-1): no inh; MMP-14 [4]: no inh
O=C(O)CC[C@H](NC(=O)c1ccc(-c2ccccc2)cc1)C(=O)NC1Cc2ccccc2C1 [Example 6A, N^2-(1,1′-biphenyl-4-ylcarbonyl)-N^1-2,3-dihydro-1H-inden-2-yl-L-α-glutamine]	> 50000 nM	740 nM	150 nM	29800 nM	> 200000 nM				IC50 (MMP-1): > 50000 nM
O=C(O)CC[C@H](NC(=O)c1ccc(-c2ccccc2)cc1)C(=O)NCc1ccc(Cl)c(Cl)c1 [Example 8BB, N^2-(1,1′-biphenyl-4-ylcarbonyl)-N^1-(3,4-dichlorobenzyl)-L-α-glutamine]	19000 nM	650 nM	74 nM	2300 nM	~25000 nM				MMP-1 (MMP-1): no inh
CCC(C)NC(=O)[C@H](CCC(=O)O)NC(=O)c1ccc(-c2ccccc2)cc1 (stereo partly drawn) [Example 8BBB, N^2-(1,1′-biphenyl-4-ylcarbonyl)-N^1-(sec-butyl)-L-α-glutamine]	> 50000 nM	700 nM	32 nM						bovine [5, 6]: 35%; bovine [5, 7]: 0%; Ki ([3]; Table 1, enzyme not given, column follows Agg1 IC50, read-out: Ki): 130 nM; IC50 (MMP-1): > 200000 nM; MMP-14 [4]: no inh
O=C(O)CC[C@H](NC(=O)c1ccc(-c2ccccc2)cc1)C(=O)NCc1ccc(I)cc1 [Example 8LL, N^2-(1,1′-biphenyl-4-ylcarbonyl)-N^1-(4-iodobenzyl)-L-α-glutamine]	24000 nM	990 nM	55 nM	50000 nM					bovine [5, 6]: 40%; bovine [5, 7]: 0%
CC(C)(C)NC(=O)[C@H](CCC(=O)O)NC(=O)c1ccc(-c2ccccc2)cc1 [Example 8SSS, N^2-(biphenyl-4-ylcarbonyl)-N^1-(tert-butyl)-L-α-glutamine]	> 50000 nM	470 nM	64 nM	10300 nM					
COc1cc(COc2ccc(-c3ccc(C(=O)N[C@@H](CCC(=O)O)C(=O)NCc4cc(OC)c(OC)c(OC)c4)cc3)cc2)cc(OC)c1 [Example 18, N^2-({4′-[(3,5-dimethoxybenzyl)oxy]biphenyl-4-yl}carbonyl)-N-(3,4,5-trimethoxybenzyl)-L-α-glutamine]						~1600 nM	50 nM	49 nM	
